Measured values reported in patent publication US10517889B2, “Modulators of SMAD7 expression” (Ionis Pharmaceuticals, Inc., priority 2017, dated 2019).
Strand notation (5' to 3'): a small letter for the sugar, then the base; units joined by * are phosphorothioate-linked, units joined directly phosphodiester-linked; [ ] holds rarer units or linkages, { } end groups; capitals alone tell only the bases. k = constrained ethyl (cEt); [5mC] = 5-methylcytosine; d = 2'-deoxy (DNA)

The substances below were run on human SMAD7 mRNA (assay: Antisense inhibition of human SMAD7 mRNA expression in Hep3B cells by 3-10-3 cEt gapmers, 10,000 nM, electroporation (Example 2)). Settings: Hep3B cells, 10,000 nM antisense oligonucleotide, electroporation, approximately 24 hours, RT-PCR primer probe set RTS5062, relative to untreated control cells.
Format: cell-based
Method: Antisense oligonucleotides were designed to target human SMAD7 mRNA and were tested for their effects on SMAD7 mRNA expression in vitro. The antisense oligonucleotides were tested in a series of experiments that had similar culture conditions, as described below. ION 771576, described in the studies above and which is a 5-10-5 MOE gapmer, was also included in these assays. Cultured Hep3B cells at a density of 20,000 cells per well were transfected using electroporation with 10,000 nM antisense oligonucleotide. After a treatment period of approximately 24 hours, RNA was isolated from the cells and SMAD7 mRNA levels were measured by quantitative real-time PCR. Primer probe set RTS5062 was used to measure human SMAD7 mRNA levels. SMAD7 mRNA levels were adjusted according to total RNA content, as measured by RIBOGREEN®. Results are presented as percent inhibition of SMAD7 mRNA expression, relative to untreated control cells.
The newly designed chimeric antisense oligonucleotides in the Tables below were designed as 3-10-3 cEt gapmers. The gapmers are 16 nucleosides in length, wherein the central gap segment comprises often 2′-deoxynucleosides and is flanked by wing segments on the 5′ direction and the 3′ direction comprising three nucleosides each. Each nucleoside in the 5′ wing segment and each nucleoside in the 3′ wing segment has a cEt sugar modification. The internucleoside linkages throughout each gapmer are phosphorothioate (P═S) linkages. All cytosine residues throughout each gapmer are 5-methylcytosines.
“Start site” indicates the 5′-most nucleoside to which the gapmer is targeted in the human gene sequence. “Stop site” indicates the 3′-most nucleoside to which the gapmer is targeted human gene sequence. […] Some of the oligonucleotides presented were complementary to SMAD7 mRNA sequences RefSeqNo. NM_001190821.1 (designated herein as SEQ ID NO: 3) or RefSeqNo. NM_001190822.1 (designated herein as SEQ ID NO: 4), and are presented in a separate table shown below.
With “772597 (k[5mC]*kA*kG*dT*dA*dT*dG*d[5mC]*d[5mC]*dA*d[5mC]*d[5mC]*dA*k[5mC]*kG*k[5mC]; antisense) [compound 772597]” the “% Inhibition” value was 0%. “772613 (kA*kT*kT*dG*dA*dG*d[5mC]*dT*dG*dT*d[5mC]*d[5mC]*dG*kA*kG*kG; antisense) [compound 772613]” was tested, and the “% Inhibition” value was 7%. In the case of “772621 (kA*kA*k[5mC]*dT*dG*d[5mC]*dT*dG*d[5mC]*dG*dG*dT*dT*kG*kT*kA; antisense) [compound 772621]”, the “% Inhibition” value is reported as 38%. “772628 (kG*k[5mC]*k[5mC]*dT*dT*dG*dA*dT*dG*dG*dA*dG*dA*kA*kA*k[5mC]; antisense) [compound 772628]” was tested, and the “% Inhibition” value was 33%. In the case of “772633 (kG*kG*kT*d[5mC]*dA*dT*dT*dG*dG*dG*d[5mC]*d[5mC]*dG*k[5mC]*kT*kG; antisense) [compound 772633]”, the “% Inhibition” value is reported as 37%.

Same assay, conditions: Hep3B cells, electroporation with 10,000 nM antisense oligonucleotide, approximately 24 hours, SMAD7 mRNA by RT-PCR (RTS5062), relative to untreated control cells
With “772536 (antisense kG*kA*k[5mC]*d[5mC]*dT*d[5mC]*d[5mC]*dG*d[5mC]*dA*d[5mC]*dA*d[5mC]*k[5mC]*kA*kT) [compound 772536]” the “% Inhibition” value was 22%. For “772556 (antisense kA*kG*k[5mC]*dA*dG*dG*dA*dG*dG*d[5mC]*dA*d[5mC]*dG*k[5mC]*kG*kG) [compound 772556]”, the “% Inhibition” value was 43%. In the case of “772557 (antisense kG*kT*k[5mC]*d[5mC]*dA*dG*dG*d[5mC]*dG*dG*d[5mC]*d[5mC]*dG*kG*kG*k[5mC]) [compound 772557]”, the “% Inhibition” value is reported as 2%. “772563 (antisense kG*kG*k[5mC]*d[5mC]*dA*d[5mC]*d[5mC]*dT*dG*dA*dA*d[5mC]*dA*k[5mC]*kT*kT) [compound 772563]” was tested, and the “% Inhibition” value was 0%. With “772565 (antisense kA*kA*kT*dG*d[5mC]*d[5mC]*dT*dG*dA*dG*dA*dT*d[5mC]*k[5mC]*kG*kG) [compound 772565]” the “% Inhibition” value was 64%. In the case of “772572 (antisense kA*kT*k[5mC]*dT*dT*d[5mC]*d[5mC]*d[5mC]*dG*dT*dA*dA*dG*kA*kT*kT) [compound 772572]”, the “% Inhibition” value is reported as 0%. With “772573 (antisense kA*kG*k[5mC]*dA*d[5mC]*dA*d[5mC]*d[5mC]*dA*dG*d[5mC]*dT*d[5mC]*kG*kG*kG) [compound 772573]” the “% Inhibition” value was 57%. With “772587 (kA*kT*k[5mC]*d[5mC]*d[5mC]*d[5mC]*dA*dG*dG*d[5mC]*dT*d[5mC]*d[5mC]*kA*kG*kA; antisense) [compound 772587]” the “% Inhibition” value was 39%. With “772590 (kT*kG*kT*dG*dA*d[5mC]*d[5mC]*dG*dA*dT*d[5mC]*d[5mC]*d[5mC]*k[5mC]*kA*kG; antisense) [compound 772590]” the “% Inhibition” value was 37%. In the case of “772606 (kA*kG*k[5mC]*d[5mC]*dA*dT*dT*d[5mC]*d[5mC]*d[5mC]*d[5mC]*dT*dG*kA*kG*kG; antisense) [compound 772606]”, the “% Inhibition” value is reported as 41%. In the case of “772610 (kG*kG*k[5mC]*dA*dA*dA*dA*dG*d[5mC]*d[5mC]*dA*dT*dT*k[5mC]*k[5mC]*k[5mC]; antisense) [compound 772610]”, the “% Inhibition” value is reported as 34%. In the case of “772642 (kT*kA*k[5mC]*d[5mC]*dG*dG*d[5mC]*dT*dG*dT*dT*dG*dA*kA*kG*kA; antisense) [compound 772642]”, the “% Inhibition” value is reported as 0%.

Same assay, conditions: Hep3B cells, electroporation with 10,000 nM antisense oligonucleotide, approximately 24 hours, primer probe set RTS5062, relative to untreated control cells
With “772532 (antisense k[5mC]*kA*kG*d[5mC]*dA*dG*dG*d[5mC]*dG*d[5mC]*dA*dG*dG*k[5mC]*kG*kA) [compound 772532]” the “% inhibition of SMAD7 mRNA expression” value was 21%. With “772533 (antisense kT*kG*kA*dA*dG*dA*dA*dG*dT*d[5mC]*dG*dG*dG*k[5mC]*kG*k[5mC]) [compound 772533]” the “% inhibition of SMAD7 mRNA expression” value was 31%. With “772543 (antisense kG*kG*kA*d[5mC]*dG*dA*dG*d[5mC]*dG*d[5mC]*dA*dG*dA*kT*k[5mC]*kG) [compound 772543]” the “% inhibition of SMAD7 mRNA expression” value was 58%. In the case of “772555 (antisense kA*kG*kG*d[5mC]*dA*d[5mC]*dG*d[5mC]*dG*dG*dT*dG*d[5mC]*kG*k[5mC]*kG) [compound 772555]”, the “% inhibition of SMAD7 mRNA expression” value is reported as 23%. “772559 (antisense kA*kG*k[5mC]*dG*dA*dG*dT*dA*dG*dG*dA*d[5mC]*dG*kA*kG*kG) [compound 772559]” was tested, and the “% inhibition of SMAD7 mRNA expression” value was 14%. With “772689 (kG*kT*kT*d[5mC]*dA*dT*dT*dT*dA*dA*dA*d[5mC]*d[5mC]*kT*kT*kT; antisense) [compound 772689]” the “% inhibition of SMAD7 mRNA expression” value was 26%. For “772692 (kA*kA*kA*dG*d[5mC]*dA*d[5mC]*dT*dA*d[5mC]*dA*dA*dT*kG*k[5mC]*kT; antisense) [compound 772692]”, the “% Inhibition” value was 19%. In the case of “772696 (kT*k[5mC]*kT*d[5mC]*dT*d[5mC]*dA*dA*dA*dG*d[5mC]*dA*d[5mC]*kT*kA*k[5mC]; antisense) [compound 772696]”, the “% inhibition of SMAD7 mRNA expression” value is reported as 56%. With “772700 (k[5mC]*kT*kT*dT*dA*dA*dT*dA*dA*dA*dT*d[5mC]*dT*k[5mC]*kA*kG; antisense) [compound 772700]” the “% Inhibition” value was 24%.

Same assay, conditions: SMAD7 mRNA, Hep3B cells, 10,000 nM antisense oligonucleotide, electroporation, approximately 24 hours, primer probe set RTS5062, relative to untreated control cells
With “772535 (antisense k[5mC]*k[5mC]*kG*d[5mC]*dA*d[5mC]*dA*d[5mC]*d[5mC]*dA*dT*dG*dA*kA*kG*kA) [compound 772535]” the “% Inhibition” value was 29%. In the case of “772540 (antisense kA*kG*kG*d[5mC]*dG*dA*dG*dG*dA*dG*dA*dA*dA*kA*kG*kT) [compound 772540]”, the “% Inhibition” value is reported as 10%. For “772551 (antisense kT*kT*k[5mC]*dA*dG*dA*dT*d[5mC]*d[5mC]*dG*d[5mC]*d[5mC]*dT*k[5mC]*kG*kG) [compound 772551]”, the “% Inhibition” value was 39%. In the case of “772552 (antisense kG*k[5mC]*kG*d[5mC]*d[5mC]*dT*dT*d[5mC]*dA*dG*dA*dT*d[5mC]*k[5mC]*kG*k[5mC]) [compound 772552]”, the “% Inhibition” value is reported as 34%. In the case of “772567 (antisense kG*kA*k[5mC]*dT*dT*d[5mC]*d[5mC]*dG*dA*dG*dG*dA*dA*kT*kG*k[5mC]) [compound 772567]”, the “% Inhibition” value is reported as 58%. With “772571 (antisense k[5mC]*k[5mC]*kG*dT*dA*dA*dG*dA*dT*dT*d[5mC]*dA*d[5mC]*kA*kG*k[5mC]) [compound 772571]” the “% Inhibition” value was 50%. For “772582 (k[5mC]*kT*kG*dA*dA*dA*dG*d[5mC]*d[5mC]*d[5mC]*d[5mC]*d[5mC]*d[5mC]*kA*kG*kG; antisense) [compound 772582]”, the “% Inhibition” value was 34%. In the case of “772584 (kG*kA*kA*dG*dT*dT*dG*dG*dG*dA*dA*dT*d[5mC]*kT*kG*kA; antisense) [compound 772584]”, the “% Inhibition” value is reported as 4%. With “772589 (kA*k[5mC]*k[5mC]*dG*dA*dT*d[5mC]*d[5mC]*d[5mC]*d[5mC]*dA*dG*dG*k[5mC]*kT*k[5mC]; antisense) [compound 772589]” the “% Inhibition” value was 9%. In the case of “772591 (kA*kG*kT*dG*dT*dG*dA*d[5mC]*d[5mC]*dG*dA*dT*d[5mC]*k[5mC]*k[5mC]*k[5mC]; antisense) [compound 772591]”, the “% Inhibition” value is reported as 60%. “772592 (k[5mC]*kA*k[5mC]*d[5mC]*dA*dG*dT*dG*dT*dG*dA*d[5mC]*d[5mC]*kG*kA*kT; antisense) [compound 772592]” was tested, and the “% Inhibition” value was 24%. With “772593 (kA*k[5mC]*kG*d[5mC]*dA*d[5mC]*d[5mC]*dA*dG*dT*dG*dT*dG*kA*k[5mC]*k[5mC]; antisense) [compound 772593]” the “% Inhibition” value was 42%. With “772595 (kA*k[5mC]*k[5mC]*dA*d[5mC]*dG*d[5mC]*dA*d[5mC]*d[5mC]*dA*dG*dT*kG*kT*kG; antisense) [compound 772595]” the “% Inhibition” value was 2%. For “772604 (kA*kT*kT*d[5mC]*d[5mC]*d[5mC]*d[5mC]*dT*dG*dA*dG*dG*dT*kA*kG*kA; antisense) [compound 772604]”, the “% Inhibition” value was 48%. With “772611 (kT*k[5mC]*k[5mC]*dG*dA*dG*dG*d[5mC]*dA*dA*dA*dA*dG*k[5mC]*k[5mC]*kA; antisense) [compound 772611]” the “% Inhibition” value was 14%. For “772614 (kG*kA*k[5mC]*dT*d[5mC]*dT*dT*dG*dT*dT*dG*dT*d[5mC]*k[5mC]*kG*kA; antisense) [compound 772614]”, the “% Inhibition” value was 43%. In the case of “772623 (kA*kG*kT*d[5mC]*d[5mC]*dG*dG*dG*dT*dT*dG*dT*d[5mC]*k[5mC]*kA*kG; antisense) [compound 772623]”, the “% Inhibition” value is reported as 42%. “772635 (kA*kA*kG*d[5mC]*dT*dG*dA*dT*d[5mC]*dT*dG*d[5mC]*dA*k[5mC]*kG*kG; antisense) [compound 772635]” was tested, and the “% Inhibition” value was 43%. In the case of “772687 (kA*k[5mC]*k[5mC]*dT*dT*dT*dG*dT*dA*dG*dT*dT*dA*kG*kA*kA; antisense) [compound 772687]”, the “% Inhibition” value is reported as 46%.
